Data on five molecules can be found in publication PMC3509171 (Nature chemical biology, 2012).

As usually defined, the Kd is the equilibrium constant for the complex coming apart. High values mean lower affinity, low ones higher affinity. As usually defined, the IC50 is the concentration needed to halve the response being measured. The low end stands for greater potency, the high end for weaker potency.

In experiment [1] the target is T1, hOGT (312-1031) (Homo sapiens, UniProt O15294, K852M).
T1 sequence (O15294 322-1041 K852M): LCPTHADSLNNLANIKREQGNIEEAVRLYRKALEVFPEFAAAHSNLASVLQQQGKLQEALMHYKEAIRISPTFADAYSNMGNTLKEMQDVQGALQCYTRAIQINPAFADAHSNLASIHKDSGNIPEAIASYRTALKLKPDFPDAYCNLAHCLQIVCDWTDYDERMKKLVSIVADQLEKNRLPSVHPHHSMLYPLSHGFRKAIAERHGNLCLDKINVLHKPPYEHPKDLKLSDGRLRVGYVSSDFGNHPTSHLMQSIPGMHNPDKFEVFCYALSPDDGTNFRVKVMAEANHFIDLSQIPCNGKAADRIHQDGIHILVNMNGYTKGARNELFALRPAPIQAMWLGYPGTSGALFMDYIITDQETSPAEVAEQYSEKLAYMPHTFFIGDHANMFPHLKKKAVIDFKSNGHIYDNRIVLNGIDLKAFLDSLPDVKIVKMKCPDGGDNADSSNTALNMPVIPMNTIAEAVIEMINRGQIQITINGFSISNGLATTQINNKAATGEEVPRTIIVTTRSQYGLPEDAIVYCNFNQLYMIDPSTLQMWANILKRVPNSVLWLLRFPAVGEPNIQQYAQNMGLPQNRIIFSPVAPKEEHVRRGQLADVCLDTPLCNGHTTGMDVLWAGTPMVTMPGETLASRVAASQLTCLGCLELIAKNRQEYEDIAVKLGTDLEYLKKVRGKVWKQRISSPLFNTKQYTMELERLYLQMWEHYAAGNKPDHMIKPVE
The experiment is described as follows: surface plasmon resonance, […] equilibrium fit. It counts as binding. (In general: Surface plasmon resonance follows binding to a sensor surface in real time, without labels.)

The target in experiment [2] is T2, hOGT (312-1031) (Homo sapiens, UniProt O15294).
T2 sequence (O15294 322-1041): T1 sequence (O15294 322-1041 K852M) with M531K
Nature of the experiment: surface plasmon resonance, […] equilibrium fit. It counts as binding.

The target in experiment [3] is T3, hOGT (312-1031) (Homo sapiens, UniProt O15294, H568F).
T3 sequence (O15294 322-1041 H568F): T1 sequence (O15294 322-1041 K852M) with H247F, M531K
Nature of the experiment: surface plasmon resonance, […] equilibrium fit. Format: binding.

The target in experiment [4] is T4, hOGT (312-1031) (Homo sapiens, UniProt O15294, D564N).
T4 sequence (O15294 322-1041 D564N): T1 sequence (O15294 322-1041 K852M) with D243N, M531K
Nature of the experiment: surface plasmon resonance, […] equilibrium fit. It counts as binding.

Experiment [5] concerns the target T2, hOGT (312-1031). Nature of the experiment: in vitro O-GlcNAc transfer inhibition. It counts as biochemical.

Where a chain is given by its changes, count along the chain named.

Regarding `CC(=O)N[C@H]1[C@@H](OP(=O)(O)OP(=O)(O)OC[C@H]2O[C@@H](n3ccc(=O)[nH]c3=O)[C@H](O)[C@@H]2O)O[C@H](CO)[C@@H](O)[C@@H]1O` [UDP-GlcNAc], the dissociation constant Kd is 4.7 ± 0.1 µM in experiment [1], 16.1 ± 0.1 µM in experiment [2], 42.3 ± 0.4 µM in experiment [3] and 32.1 ± 0.3 µM in experiment [4].

For `O=c1ccn([C@@H]2O[C@H](COP(=O)(O)OP(=O)(O)O)[C@@H](O)[C@H]2O)c(=O)[nH]1` [UDP], the Kd worked out at 0.7 ± 0.1 µM in experiment [3] and 0.6 ± 0.03 µM in experiment [4].

Molecule `CC(=O)N[C@@H]1[C@@H](O)[C@H](O)[C@@H](CO)S[C@@H]1OP(=O)(O)OP(=O)(O)OC[C@H]1O[C@@H](n2ccc(=O)[nH]c2=O)[C@H](O)[C@@H]1O` [compound 1, UDP-5S-GlcNAc] yielded a dissociation constant Kd in experiment [1] of 5.7 ± 0.1 µM.

Take `O=C(N[C@H]1[C@@H](OP(=O)(O)OP(=O)(O)OC[C@H]2O[C@@H](n3ccc(=O)[nH]c3=O)[C@H](O)[C@@H]2O)O[C@H](CO)[C@@H](O)[C@@H]1O)C(F)(F)F` [compound 2, UDP-GlcNAcF3]: the equilibrium dissociation constant (Kd) turned out to be 29.3 ± 0.1 µM in experiment [1] and 12.1 ± 0.1 µM in experiment [2].

As to `CC(=O)N[C@H]1[C@@H](OP(=O)(O)O[P@](O)(=S)OC[C@H]2O[C@@H](n3ccc(=O)[nH]c3=O)[C@H](O)[C@@H]2O)O[C@H](CO)[C@@H](O)[C@@H]1O` [compound 4, RP-αS-UDP-GlcNAc], the Kd in experiment [1] stood at 2.8 ± 0.1 µM; in experiment [2] it was 11.3 ± 0.1 µM. The IC50 in experiment [5] worked out at 25 µM.
